# Columns and labels:
# MOLT-4 [1] = assay: Inhibitory activity was tested against Molt4/C8 cells; type: functional, cell-based; conditions: Homo sapiens
# CCRF-CEM [2] = assay: Average potency against CEM cells; type: functional, Homo sapiens
# P388 [3] = assay: Inhibitory activity was tested against P388 cells; type: functional, cell-based; conditions: Mus musculus
# L1210 [4] = assay: Average potency against L1210 cells; type: functional, Mus musculus
# L1210 [5] = assay: Inhibitory activity was tested against L1210 cells; type: functional, cell-based; conditions: Mus musculus
# CCRF-CEM [6] = assay: Inhibitory activity was tested against CEM cells; type: functional, cell-based; conditions: Homo sapiens
# P388 [7] = assay: Average potency against P388 cells; type: functional, Mus musculus
# MOLT-4 [8] = assay: Average potency against Molt4/C8cells; type: functional, Homo sapiens
smiles,measurement,setting,value
O=C1/C(=C/c2ccc(F)cc2)CCCc2ccccc21,IC50,MOLT-4 [1],53.6 µM
same,AP,CCRF-CEM [2],47 µM
same,IC50,P388 [3],11.1 µM
same,AP,L1210 [4],85.2 µM
same,IC50,L1210 [5],60.3 µM
same,IC50,CCRF-CEM [6],20 µM
same,AP,P388 [7],11.2 µM
same,AP,MOLT-4 [8],66 µM
O=C1/C(=C/c2ccc(Cl)cc2)Cc2ccccc21,IC50,MOLT-4 [1],> 500 µM
same,AP,CCRF-CEM [2],155 µM
same,IC50,P388 [3],> 50 µM
same,AP,L1210 [4],127 µM
same,IC50,L1210 [5],54.1 µM
same,IC50,CCRF-CEM [6],284 µM
same,AP,P388 [7],42.9 µM
same,AP,MOLT-4 [8],267 µM
COc1ccc(/C=C2\CCc3ccccc3C2=O)cc1,IC50,MOLT-4 [1],9.41 µM
same,AP,CCRF-CEM [2],115 µM
same,IC50,P388 [3],22.1 µM
same,AP,L1210 [4],135 µM
same,IC50,L1210 [5],44 µM
same,IC50,CCRF-CEM [6],8.84 µM
same,AP,P388 [7],20.9 µM
same,AP,MOLT-4 [8],158 µM
COc1cccc(/C=C2\Cc3ccccc3C2=O)c1,IC50,MOLT-4 [1],> 500 µM
same,AP,CCRF-CEM [2],155 µM
same,IC50,P388 [3],> 50 µM
same,AP,L1210 [4],127 µM
same,IC50,L1210 [5],217 µM
same,IC50,CCRF-CEM [6],> 500 µM
same,AP,P388 [7],42.9 µM
same,AP,MOLT-4 [8],267 µM
Cc1ccc(/C=C2\Cc3ccccc3C2=O)cc1,IC50,MOLT-4 [1],> 500 µM
same,AP,CCRF-CEM [2],155 µM
same,IC50,P388 [3],38.6 µM
same,AP,L1210 [4],127 µM
same,IC50,L1210 [5],59.1 µM
same,IC50,CCRF-CEM [6],67.1 µM
same,AP,P388 [7],42.9 µM
same,AP,MOLT-4 [8],267 µM
O=C1/C(=C/c2ccc([N+](=O)[O-])cc2)CCc2ccccc21,IC50,MOLT-4 [1],> 500 µM
same,AP,CCRF-CEM [2],115 µM
same,IC50,P388 [3],> 50 µM
same,AP,L1210 [4],135 µM
same,IC50,L1210 [5],> 500 µM
same,IC50,CCRF-CEM [6],> 500 µM
same,AP,P388 [7],20.9 µM
same,AP,MOLT-4 [8],158 µM
O=C1/C(=C/c2ccc([N+](=O)[O-])cc2)Cc2ccccc21,IC50,MOLT-4 [1],> 500 µM
same,AP,CCRF-CEM [2],155 µM
same,IC50,P388 [3],> 50 µM
same,AP,L1210 [4],127 µM
same,IC50,L1210 [5],> 500 µM
same,IC50,CCRF-CEM [6],> 500 µM
same,AP,P388 [7],42.9 µM
same,AP,MOLT-4 [8],267 µM
O=C1/C(=C/c2ccc(Br)cc2)Cc2ccccc21,IC50,MOLT-4 [1],> 500 µM
same,AP,CCRF-CEM [2],155 µM
same,IC50,P388 [3],> 50 µM
same,AP,L1210 [4],127 µM
same,IC50,L1210 [5],64.8 µM
same,IC50,CCRF-CEM [6],299 µM
same,AP,P388 [7],42.9 µM
same,AP,MOLT-4 [8],267 µM
CN(C)c1ccc(/C=C2\CCc3ccccc3C2=O)cc1,IC50,MOLT-4 [1],2.11 µM
same,AP,CCRF-CEM [2],115 µM
same,IC50,P388 [3],5.3 µM
same,AP,L1210 [4],135 µM
same,IC50,L1210 [5],17.5 µM
same,IC50,CCRF-CEM [6],1.65 µM
same,AP,P388 [7],20.9 µM
same,AP,MOLT-4 [8],158 µM
O=C1/C(=C/c2cccc(F)c2)Cc2ccccc21,IC50,MOLT-4 [1],46.1 µM
same,AP,CCRF-CEM [2],155 µM
same,IC50,P388 [3],40 µM
same,AP,L1210 [4],127 µM
same,IC50,L1210 [5],181 µM
same,IC50,CCRF-CEM [6],39.2 µM
same,AP,P388 [7],42.9 µM
same,AP,MOLT-4 [8],267 µM
O=C1/C(=C/c2cccc(Br)c2)CCCc2ccccc21,IC50,MOLT-4 [1],17.1 µM
same,AP,CCRF-CEM [2],47 µM
same,IC50,P388 [3],10.5 µM
same,AP,L1210 [4],85.2 µM
same,IC50,L1210 [5],51 µM
same,IC50,CCRF-CEM [6],8.9 µM
same,AP,P388 [7],11.2 µM
same,AP,MOLT-4 [8],66 µM
O=C1/C(=C/c2ccccc2)Cc2ccccc21,IC50,MOLT-4 [1],42.3 µM
same,AP,CCRF-CEM [2],155 µM
same,IC50,P388 [3],> 50 µM
same,AP,L1210 [4],127 µM
same,IC50,L1210 [5],112 µM
same,IC50,CCRF-CEM [6],41.3 µM
same,AP,P388 [7],42.9 µM
same,AP,MOLT-4 [8],267 µM
O=C1/C(=C/c2ccc(Br)cc2)CCCc2ccccc21,IC50,MOLT-4 [1],54.7 µM
same,AP,CCRF-CEM [2],47 µM
same,IC50,P388 [3],18.6 µM
same,AP,L1210 [4],85.2 µM
same,IC50,L1210 [5],50.9 µM
same,IC50,CCRF-CEM [6],17.1 µM
same,AP,P388 [7],11.2 µM
same,AP,MOLT-4 [8],66 µM
O=C1/C(=C/c2ccccc2)CCc2ccccc21,IC50,MOLT-4 [1],32.4 µM
same,AP,CCRF-CEM [2],115 µM
same,IC50,P388 [3],30.2 µM
same,AP,L1210 [4],135 µM
same,IC50,L1210 [5],121 µM
same,IC50,CCRF-CEM [6],7.42 µM
same,AP,P388 [7],20.9 µM
same,AP,MOLT-4 [8],158 µM
O=C1/C(=C/c2ccc(Br)cc2)CCc2ccccc21,IC50,MOLT-4 [1],> 500 µM
same,AP,CCRF-CEM [2],115 µM
same,IC50,P388 [3],20.4 µM
same,AP,L1210 [4],135 µM
same,IC50,L1210 [5],202 µM
same,IC50,CCRF-CEM [6],> 500 µM
same,AP,P388 [7],20.9 µM
same,AP,MOLT-4 [8],158 µM
O=C1/C(=C/c2ccc(F)cc2)CCc2ccccc21,IC50,MOLT-4 [1],41.2 µM
same,AP,CCRF-CEM [2],115 µM
same,IC50,P388 [3],15.9 µM
same,AP,L1210 [4],135 µM
same,IC50,L1210 [5],49.3 µM
same,IC50,CCRF-CEM [6],33.4 µM
same,AP,P388 [7],20.9 µM
same,AP,MOLT-4 [8],158 µM
CN(C)c1ccc(/C=C2\Cc3ccccc3C2=O)cc1,IC50,MOLT-4 [1],135 µM
same,AP,CCRF-CEM [2],155 µM
same,IC50,P388 [3],> 50 µM
same,AP,L1210 [4],127 µM
same,IC50,L1210 [5],61.7 µM
same,IC50,CCRF-CEM [6],41 µM
same,AP,P388 [7],42.9 µM
same,AP,MOLT-4 [8],267 µM
Cc1cccc(/C=C2\CCc3ccccc3C2=O)c1,IC50,MOLT-4 [1],35.8 µM
same,AP,CCRF-CEM [2],115 µM
same,IC50,P388 [3],16.3 µM
same,AP,L1210 [4],135 µM
same,IC50,L1210 [5],73.2 µM
same,IC50,CCRF-CEM [6],9.41 µM
same,AP,P388 [7],20.9 µM
same,AP,MOLT-4 [8],158 µM
O=C1/C(=C/c2cccc(Cl)c2)CCc2ccccc21,IC50,MOLT-4 [1],41.8 µM
same,AP,CCRF-CEM [2],115 µM
same,IC50,P388 [3],16.8 µM
same,AP,L1210 [4],135 µM
same,IC50,L1210 [5],118 µM
same,IC50,CCRF-CEM [6],9.19 µM
same,AP,P388 [7],20.9 µM
same,AP,MOLT-4 [8],158 µM
COc1cccc(/C=C2\CCc3ccccc3C2=O)c1,IC50,MOLT-4 [1],12.1 µM
same,AP,CCRF-CEM [2],115 µM
same,IC50,P388 [3],17.6 µM
same,AP,L1210 [4],135 µM
same,IC50,L1210 [5],60.7 µM
same,IC50,CCRF-CEM [6],8.78 µM
same,AP,P388 [7],20.9 µM
same,AP,MOLT-4 [8],158 µM
Cc1ccc(/C=C2\CCc3ccccc3C2=O)cc1,IC50,MOLT-4 [1],> 500 µM
same,AP,CCRF-CEM [2],115 µM
same,IC50,P388 [3],17.7 µM
same,AP,L1210 [4],135 µM
same,IC50,L1210 [5],161 µM
same,IC50,CCRF-CEM [6],460 µM
same,AP,P388 [7],20.9 µM
same,AP,MOLT-4 [8],158 µM
O=C1/C(=C/c2ccc(Cl)cc2)CCc2ccccc21,IC50,MOLT-4 [1],> 500 µM
same,AP,CCRF-CEM [2],115 µM
same,IC50,P388 [3],20.9 µM
same,AP,L1210 [4],135 µM
same,IC50,L1210 [5],69.1 µM
same,IC50,CCRF-CEM [6],48.2 µM
same,AP,P388 [7],20.9 µM
same,AP,MOLT-4 [8],158 µM
O=C1CCCCC/C1=C\c1cccc(Br)c1,IC50,MOLT-4 [1],176 µM
same,AP,CCRF-CEM [2],136 µM
same,IC50,P388 [3],24.1 µM
same,AP,L1210 [4],227 µM
same,IC50,L1210 [5],246 µM
same,IC50,CCRF-CEM [6],137 µM
same,AP,P388 [7],34.5 µM
same,AP,MOLT-4 [8],186 µM
O=C1/C(=C/c2ccc(F)cc2)Cc2ccccc21,IC50,MOLT-4 [1],60 µM
same,AP,CCRF-CEM [2],155 µM
same,IC50,P388 [3],> 50 µM
same,AP,L1210 [4],127 µM
same,IC50,L1210 [5],89 µM
same,IC50,CCRF-CEM [6],42.2 µM
same,AP,P388 [7],42.9 µM
same,AP,MOLT-4 [8],267 µM
COc1ccc(/C=C2\Cc3ccccc3C2=O)cc1,IC50,MOLT-4 [1],226 µM
same,AP,CCRF-CEM [2],155 µM
same,IC50,P388 [3],> 50 µM
same,AP,L1210 [4],127 µM
same,IC50,L1210 [5],45.8 µM
same,IC50,CCRF-CEM [6],32.6 µM
same,AP,P388 [7],42.9 µM
same,AP,MOLT-4 [8],267 µM
O=C1/C(=C/c2cccc(F)c2)CCc2ccccc21,IC50,MOLT-4 [1],11.9 µM
same,AP,CCRF-CEM [2],115 µM
same,IC50,P388 [3],31.1 µM
same,AP,L1210 [4],135 µM
same,IC50,L1210 [5],61.2 µM
same,IC50,CCRF-CEM [6],8.01 µM
same,AP,P388 [7],20.9 µM
same,AP,MOLT-4 [8],158 µM
O=C1/C(=C/c2cccc(Cl)c2)Cc2ccccc21,IC50,MOLT-4 [1],50.9 µM
same,AP,CCRF-CEM [2],155 µM
same,IC50,P388 [3],26.3 µM
same,AP,L1210 [4],127 µM
same,IC50,L1210 [5],41.2 µM
same,IC50,CCRF-CEM [6],31.8 µM
same,AP,P388 [7],42.9 µM
same,AP,MOLT-4 [8],267 µM
